In brackets after ≈: the same amount, converted by molar mass. Structures can show the parent of a compound that is named as a salt. Where two headings read alike, the source gives them in different places.
What was measured:
BGC-823 = assay: Cytotoxicity test (MTT, 72 h); conditions: Homo sapiens, BGC-823, 72 h, read-out: 50% Inhibiting Concentration value (IC50)
Experimental: (§1) In order to investigate the antitumor activities of the compounds, a variety of tumor cell lines for test are selected. Cells at logarithmic growth period are inoculated in a 96-well plate overnight, then drugs with a certain gradient concentrations are added, and incubation is carried out in a cell culture chamber (5% CO2, 37° C.) for 72 h.

PANC-1 = assay: Cytotoxicity test (MTT, 72 h); conditions: Homo sapiens, PANC-1, 72 h, read-out: 50% Inhibiting Concentration value (IC50)
Experimental: (§2) Cells at logarithmic growth period are inoculated in a 96-well plate overnight, then drugs with a certain gradient concentrations are added, and incubation is carried out in a cell culture chamber (5% CO2, 37° C.) for 72 h.

SW-480 = assay: Cytotoxicity test (MTT, 72 h); conditions: Homo sapiens, SW480, 72 h, read-out: 50% Inhibiting Concentration value (IC50)
Experimental: as §2

Hela = assay: Cytotoxicity test (MTT, 72 h); conditions: Homo sapiens, read-out: 50% Inhibiting Concentration value (IC50)
Experimental: as §1

SKOV-3 = assay: Cytotoxicity test (MTT, 72 h); conditions: Homo sapiens, SK-OV-3, 72 h, read-out: 50% Inhibiting Concentration value (IC50)
Experimental: as §2

143B = assay: Cytotoxicity test (MTT, 72 h); conditions: Homo sapiens, read-out: 50% Inhibiting Concentration value (IC50)
Experimental: as §1

H1975 = assay: Cytotoxicity test (MTT, 72 h); conditions: Homo sapiens, NCI-H1975, 72 h, read-out: 50% Inhibiting Concentration value (IC50)
Experimental: as §1

[1] = Solubility test, equilibrium method, UV-visible spectrophotometry; assay type: physicochemical; conditions: for solubility: thermodynamic from solid
Experimental: The solubility test is carried out by equilibrium method. […] An appropriate amount of the compound is weighed and dissolved in 1 mL of methanol solution to prepare a control solution with a certain concentration (C0). The concentration of test solution is calculated according to the following formula: Cx=(Ax/A0)C0, wherein Cx is concentration of test solution, Ax is absorbance of test solution, C0 is concentration of control solution, and A0 is absorbance of control solution.

ECA-109 = assay: Cytotoxicity test (MTT, 72 h); conditions: Homo sapiens, ECa-109, 72 h, read-out: 50% Inhibiting Concentration value (IC50)
Experimental: as §1

HT-29 = assay: Cytotoxicity test (MTT, 72 h); conditions: Homo sapiens, HT-29, 72 h, read-out: 50% Inhibiting Concentration value (IC50)
Experimental: as §2

A549 = assay: Cytotoxicity test (MTT, 72 h); conditions: Homo sapiens, A549, 72 h, read-out: 50% Inhibiting Concentration value (IC50)
Experimental: as §1

HepG2 = assay: Cytotoxicity test (MTT, 72 h); conditions: Homo sapiens, HepG2, 72 h, read-out: 50% Inhibiting Concentration value (IC50)
Experimental: as §1

[2] = Multi-dose in vivo antitumor activity study, mouse weight (Example 20); set-up: species or system mice; conditions: CPT-11 group 10 mg/kg, caudal vein once every 2 days
Experimental: The drugs are administered through the caudal veins of mice once every 2 days for a total of 7 times.
At the end of the treatment cycle, the orbital venous blood of the mice is collected for later blood routine test, the mice are killed by cervical dislocation method, and tumors are removed immediately and photographed. From day 0, the mice in each group are weighed every three days, and the weights are recorded. The weight average value of each group is calculated, and mouse weight variation curve is drawn according to statistical data. At the end of the treatment cycle, tumors are removed from anesthetized mice immediately and weighted, and the tumor weight of each group is recorded. The tumor inhibition rate (%) is calculated according to the following formula: […]

HCT-116 = assay: Cytotoxicity test (MTT, 72 h); conditions: Homo sapiens, HCT-116, 72 h, read-out: 50% Inhibiting Concentration value (IC50)
Experimental: as §1

K562 = assay: Cytotoxicity test (MTT, 72 h); conditions: Homo sapiens, K562, 72 h, read-out: 50% Inhibiting Concentration value (IC50)
Experimental: as §1

MDA-MB-231 = assay: Cytotoxicity test (MTT, 72 h); conditions: Homo sapiens, MDA-MB-231, 72 h, read-out: 50% Inhibiting Concentration value (IC50)
Experimental: as §1

TPC-1 = assay: Cytotoxicity test (MTT, 72 h); conditions: Homo sapiens, TPC1, 72 h, read-out: 50% Inhibiting Concentration value (IC50)
Experimental: as §2

PC3 = assay: Cytotoxicity test (MTT, 72 h); conditions: Homo sapiens, PC-3, 72 h, read-out: 50% Inhibiting Concentration value (IC50)
Experimental: as §1

[3] = common drug solvents and water; Santi et al.; cited from earlier work
tumor = conditions: Santi et al., J Med Chem. 2014; cited from earlier work
[4] = aqueous buffer, PBS pH 7.4, read-out: Solubility in PBS (pH = 7.4)
[5] = water, read-out: Solubility in Water
[6] = aqueous with cosolvent or surfactant or cyclodextrin, 0.1% aqueous solution of Tween-80, read-out: Solubility in 0.1% Tween-80
[7] = saline or isotonic, normal saline, read-out: Solubility in Normal Saline (NS)

| Compound | IC50 (BGC-823) [µM] | IC50 (PANC-1) [µM] | IC50 (SW-480) [µM] | IC50 (Hela) [µM] | IC50 (SKOV-3) [µM] | IC50 (143B) [µM] | IC50 (H1975) [µM] | solubility [1, 4] [µg/mL] | solubility [1, 5] [µg/mL] | IC50 (ECA-109) [µM] | IC50 (HT-29) [µM] | IC50 (A549) [µM] | IC50 (HepG2) [µM] | IC50 (HCT-116) [µM] | IC50 (K562) [µM] | IC50 (MDA-MB-231) [µM] | IC50 (TPC-1) [µM] | IC50 (PC3) [µM] | solubility [1, 6] [µg/mL] | solubility [1, 7] [µg/mL] | further results |
| --- | --- | --- | --- | --- | --- | --- | --- | --- | --- | --- | --- | --- | --- | --- | --- | --- | --- | --- | --- | --- | --- |
| CCc1c2c(nc3ccc(OC(=O)N4CCC(N5CCCCC5)CC4)cc13)-c1cc3c(c(=O)n1C2)COC(=O)[C@]3(O)CC [CPT-11, Irinotecan hydrochloride, reference compound] | 9.15 | 22 | 7.38 | 12 | 16.5 | 20.3 | 29.1 | 843 | 6300 | 11.7 | 12.8 | 35 | 22.1 | 14.1 | 10.7 | 14.4 | 25 | 25.1 |  |  | solubility ([1]; 0.1% aqueous solution of Tween-80, aqueous with cosolvent or surfactant or cyclodextrin, read-out: Solubility in 0.1% Tween-80): 597 µg/mL; solubility ([1]; normal saline, saline or isotonic, read-out: Solubility in Normal Saline (NS)): 1220 µg/mL; Mouse Weight ([2]; day 0): 16.53 g; Mouse Weight ([2]; day 3): 15.87 g; Mouse Weight ([2]; day 6): 16.10 g; Mouse Weight ([2]; day 9): 16.96 g; Mouse Weight ([2]; day 12): 16.53 g; Mouse Weight ([2]; day 15): 16.86 g; Mouse Weight ([2]; day 18): 16.27 g; Mouse Weight ([2]; day 21): 17.28 g |
| CCc1c2c(nc3ccc(O)cc13)-c1cc3c(c(=O)n1C2)COC(=O)[C@]3(O)CC [SN38, reference compound] |  |  |  |  |  |  |  |  |  |  |  |  |  |  |  |  |  |  |  |  | solubility (in words) [3]: almost insoluble in common drug solvents and water; in vitro antitumor activity relative to irinotecan (tumor): 100-1000 times; Solubility in 0.1% Tween-80 ([1]; 0.1% aqueous solution of Tween-80): 77.4 µg/mL (≈ 197 µM); Solubility in PBS (pH = 7.4) ([1]; PBS pH 7.4): 17.6 μg/mL; Solubility in Normal Saline (NS) ([1]; normal saline): 7.5 µg/mL (≈ 19.1 µM); solubility in water, normal saline, PBS (PH 7.4) and 0.1% aqueous solution of Tween-80 (in words) ([1]; summary of Table 1): very low solubility; Solubility in Water ([1]; water): 7.7 µg/mL (≈ 19.6 µM) |
| CCc1c2c(nc3ccc(OC(=O)NCCCOCc4cn([C@H]5O[C@@H](CO)[C@H](O)[C@@H](O)[C@@H]5O)nn4)cc13)-c1cc3c(c(=O)n1C2)COC(=O)[C@]3(O)CC [Compound 80] | 1.19 | 7.36 | 1.43 | 7.36 | 11.2 | 8.9 | 10.7 | 792 (≈ 1080 µM) | 82.5 (≈ 112 µM) | 5.78 | 6.94 | 6.13 | 9.33 | 5.15 | 4.29 | 7.78 | 12.8 | 5.11 | 961 (≈ 1300 µM) | 642 (≈ 871 µM) |  |
| CCc1c2c(nc3ccc(OC(=O)NCCOCCOCc4cn([C@H]5O[C@@H](CO)[C@H](O)[C@@H](O)[C@@H]5O)nn4)cc13)-c1cc3c(c(=O)n1C2)COC(=O)[C@]3(O)CC [Compound 73] | 0.718 | 6.99 | 0.862 | 6.99 | 2.91 | 5.95 | 7.14 | 414 (≈ 540 µM) | 3580 (≈ 4670 µM) | 2.63 | 3.16 | 5.82 | 2.42 | 0.879 | 0.733 | 2.02 | 8.57 | 4.85 | 1260 (≈ 1650 µM) | 1440 (≈ 1880 µM) |  |
| CCc1c2c(nc3ccc(OC(=O)OCCOCCOCCOCCOCc4cn(CCO[C@H]5O[C@@H](CO)[C@H](O)[C@@H](O)[C@@H]5O)nn4)cc13)-c1cc3c(c(=O)n1C2)COC(=O)[C@]3(O)CC [Compound 59] | 1.01 | 9.64 | 1.21 | 9.64 | 3.28 | 8.77 | 10.5 |  |  | 0.939 | 1.13 | 8.03 | 2.73 | 1.67 | 1.39 | 2.28 | 12.6 | 6.69 |  |  | solubility ([1]; aqueous with cosolvent or surfactant or cyclodextrin): 1200 µg/mL (≈ 1340 µM); solubility ([1]; pH 7.4, aqueous buffer): 984 µg/mL (≈ 1090 µM); solubility ([1]; saline or isotonic): 854 µg/mL (≈ 949 µM); solubility ([1]; water): 1480 µg/mL (≈ 1650 µM) |
| CCc1c2c(nc3ccc(OC(=O)NCCOCCOCc4cn(CCO[C@H]5O[C@@H](CO)[C@H](O)[C@@H](O)[C@@H]5O)nn4)cc13)-c1cc3c(c(=O)n1C2)COC(=O)C3(O)CC (stereo partly shown) [Compound 74] | 1.72 | 11.3 | 2.06 | 11.3 | 7.62 | 5.69 | 6.82 | 565 (≈ 696 µM) | 792 (≈ 977 µM) | 6.63 | 7.96 | 9.42 | 6.35 | 2.52 | 2.1 | 5.29 | 8.19 | 7.85 | 2750 (≈ 3390 µM) | 3950 (≈ 4880 µM) |  |

— patent US20210246157A1, “CAMPTOTHECIN DERIVATIVES AND PREPARATION METHODS AND APPLICATIONS THEREOF” (priority 2018, published 2021)
